According to patent US7048907B2, “Synthesis, compositions and methods for the measurement of the concentration of stable-isotope labeled compounds in life forms and life form excretory products” (BioPhysics Assay Laboratory, Inc., priority 2001, dated 2006):

Assays:
[1] = Stability of chelates to autoclaving (CM-Sephadex assay); format: physicochemical; conditions: for % of total / dpm: autoclaved 30 minutes at 121° C.
Experimental: A sample comprising 5 ml of Sm-DTPA, La-DTPA, and Eu-DTPA prepared in Examples 9, 10, and 11 were placed in 10 ml glass bottles, each capped with a grey butyl rubber cap, and the caps were crimped. Samples were autoclaved for 30 minutes at 121° C.
Five ml of each of Sm-DOTA, La-DOTA, and Eu-DOTA prepared in Examples 13, 14, and 15 were placed in 10 ml glass bottles capped with a grey butyl rubber cap and crimped. Samples were autoclaved for 30 minutes at 121° C. Samples were allowed to cool to room temperature and were assayed as described in Examples 25.

[2] = Assay of chelate on carboxymethyl (CM) Sephadex column (chelate formation, charge); format: physicochemical
Experimental: Preparation of carboxymethyl sephadex column. To two 10 ml plastic pipets cut off at the 3 ml mark and plugged with glass wool at the bottom add enough slurry to form a 2 ml volume of the CM sephadex. Wash the packed resin with 6 ml of 1 M Tris buffer pH 7.5, and 6 ml of 0.01M Tris buffer pH 7.5. […] Collect the eluants of fractions as follows. Fraction 1.3 ml of 0.01 M Tris buffer pH 7.5 and allow to drain into column. Fraction 2.1 ml of sample (gadolinium-DTPA or gadolinium chloride) and allow to drain into column. Apply 3 ml of 0.01 M Tris buffer pH 7.5 and allow to drain into column. Fraction 3.3 ml of 0.01M Tris buffer pH 7.5 and allow to drain into column. Dry all fractions at 70° C. for 76 hours, dissolve in 1 ml of 1 mM HCl and assay by atomic absorption.
(§1) Preparation of carboxymethyl Sephadex column. To two 10 ml plastic pipets which had been cut off at the 3 ml mark and plugged with glass wool at the bottom, enough slurry was added to form a 2 ml volume of the CM Sephadex. The packed resin was wash with 6 ml of 1 M Tris buffer pH 7.5, and 6 ml of 0.01M Tris buffer pH 7.5. […] Fractions were applied as follows. Fraction 1. Three ml of 0.01 M Tris buffer pH 7.5 and allow to drain into column. Fraction 2. One ml of sample (samarium-DTPA or samarium chloride) and allow to drain into column. Apply 3 ml of 0.01 M Tris buffer pH 7.5 and allow to drain into column. Fraction 3. Three ml of 0.01M Tris buffer pH 7.5 and allow to drain into column. Collect the eluant of fractions 1 through 3. Fraction 4. Column and contents.
as §1, with “were” for “had been”, “washed” for “wash”, “(lanthanum-DTPA” for “(samarium-DTPA”, “lanthanum” for “samarium”
as §1, with “were” for “had been”, “washed” for “wash”, “(Europium-DTPA” for “(samarium-DTPA”, “Europium” for “samarium”
Preparation of carboxymethyl sephadex column. To a 10 ml plastic pipet cut off at the 3 ml mark and plugged with glass wool at the bottom, add enough slurry to form a 2 ml volume of the CM sephadex. Wash the packed resin with 6 ml of 1 M Tris buffer pH 7.5, and 6 ml of 0.01M Tris buffer pH 7.5. […] Apply fractions as follows. Fraction 1. One ml of sample A and allow to drain into column.

[3] = Stability of chelates in rat serum (CM-Sephadex assay, serum binding); conditions: 24 hours in rat serum at room temperature
[4] = Kinetics of blood depletion and urine accumulation of chelates in the rat; format: in vivo; conditions: ^99mTc-DTPA, Gd-DTPA and Sm-DTPA simultaneously administered (Example 30), average of three rats
Experimental: One half ml of Sm-DTPA (0.01 mg/kg), dissolved in saline (pH 7), is injected into the tail vein of three rats. Samples of blood are obtained at 10, 30 and 60 minutes following injection and analyzed for Sm-DTPA by neutron activation. The percent of starting amount of the Sm-DTPA at each time interval is presented in Table 18 (last column on right). Similarly, the accumulation of Sm-DTPA in the rat urine at two times is shown in the last column of Table 18.
One half ml of Technetium-99m-DTPA (1 millicurie), Gd-DTPA (0.05 mg/kg), and Sm-DTPA (0.01 mg/kg) are each dissolved in saline (pH 7), and are injected simultaneously into the tail vein of three rats. Samples of blood are obtained at 10, 30 and 60 minutes following injection and analyzed for ^99mTc-DTPA (gamma counting), Gd-DTPA (T1 relaxation) and Sm-DTPA (neutron activation).
One half ml of Sm-DTPA, La-DTPA and Eu-DTPA (each 0.01 mg/kg), dissolved in saline (pH 7) are injected simultaneously into the tail vein of three rats. Samples of blood are obtained at 10, 30 and 60 minutes following injection and analyzed for each element by neutron activation.
Samples of Sm-DTPA, La-DTPA and Eu-DTPA (0.5 ml; 0.01 mg/kg), each dissolved in saline (pH 7), are injected sequentially at 0, 20, and 40 minutes into the tail vein of three rats. Samples of blood are obtained at 10, 30 and 60 min following each injection and analyzed for each element by neutron activation.

[5] = Fraction 1: sample diluted 1:10 then 2-3 ml 0.01M Tris pH 7.5 (eluate)
[6] = Fraction 2: 3 ml 0.01M Tris pH 7.5
[7] = Fraction 3: column and contents (retained)
[8] = DOTA chelates, Fraction 1: 1 ml sample diluted 1:10 then 3 ml 0.01M Tris pH 7.5 (eluate)
[9] = DOTA chelates, Fraction 2: further 3 ml 0.01M Tris pH 7.5
[10] = DOTA chelates, Fraction 3: column and contents (retained)
[11] = Fraction 1: 0.2 ml sample then 2 ml 0.01M Tris pH 7.5 (eluate)
[12] = Fraction 1: 3 ml 0.01M Tris pH 7.5 before sample
[13] = Fraction 2: 1 ml sample then 3 ml 0.01M Tris pH 7.5 (eluate)
[14] = Fraction 3: further 3 ml 0.01M Tris pH 7.5
[15] = Fraction 4: column and contents (retained)

| Compound | % of total [1, 5] | dpm [1, 5] [dpm] | % of total [1, 6] | dpm [1, 6] [dpm] | % of total [1, 7] | dpm [1, 7] [dpm] | % eluted from the CM-Sephadex column [2] [%] | % of total [2, 8] | dpm [2, 8] [dpm] | % of total [2, 9] | dpm [2, 9] [dpm] | % of total [2, 10] | dpm [2, 10] [dpm] | % of total [3, 11] | dpm [3, 11] [dpm] | % of total [3, 6] | % of unchelated ion retained on the column [2] [%] | % of total [2, 12] | % of total [2, 13] | % of total [2, 14] | also measured |
| --- | --- | --- | --- | --- | --- | --- | --- | --- | --- | --- | --- | --- | --- | --- | --- | --- | --- | --- | --- | --- | --- |
| O=C([O-])CN1CCN(CC(=O)[O-])CCN(CC(=O)[O-])CCN(CC(=O)[O-])CC1.[Eu+3] [Eu-DOTA] | 100 % of total | 366651 | <1 % of total | 1226 | 0 % of total | 0 | 100 | 100 % of total | 391454 | <1 % of total | 132 | 0 % of total | 0 | – | – | – | – | – | – | – | % eluted from CM-Sephadex column following autoclaving [1]: 100% |
| [Cl][Eu]([Cl])[Cl] [Europium chloride, reference compound] | – | – | – | – | – | – | – | – | – | – | – | – | – | 42 % of total | 2378 | 5 % of total | 100 | 0 % of total | 0 % of total | 0 % of total | dpm [3, 6]: 291 dpm; % of total [3, 7]: 52 % of total; dpm [3, 7]: 2940 dpm; dpm [2, 12]: 0 dpm; dpm [2, 13]: 0 dpm; dpm [2, 14]: 0 dpm; % of total [2, 15]: 100 % of total; dpm [2, 15]: 21244 dpm |
| [Cl][Gd]([Cl])[Cl] [Gadolinium chloride, reference compound] | – | – | – | – | – | – | – | – | – | – | – | – | – | – | – | – | 100 | 0 % of total | 0 % of total | 0 % of total | – |
| O=C([O-])CN1CCN(CC(=O)[O-])CCN(CC(=O)[O-])CCN(CC(=O)[O-])CC1.[La+3] [La-DOTA] | 100 % of total | 400045 | <1 % of total | 11 | 0 % of total | 0 | 100 | 97 % of total | 410040 | 3 % of total | 11681 | 0 % of total | 0 | – | – | – | – | – | – | – | % eluted from CM-Sephadex column following autoclaving [1]: 100% |
| [Cl][La]([Cl])[Cl] [Lanthanum chloride, reference compound] | – | – | – | – | – | – | – | – | – | – | – | – | – | 49 % of total | 51651 | 6 % of total | 100 | 0 % of total | 0 % of total | 0 % of total | dpm [3, 6]: 6586 dpm; % of total [3, 7]: 44 % of total; dpm [3, 7]: 46450 dpm; dpm [2, 12]: 0 dpm; dpm [2, 13]: 0 dpm; dpm [2, 14]: 0 dpm; % of total [2, 15]: 100 % of total |
| [Cl][Sm]([Cl])[Cl] [Samarium chloride, reference compound] | – | – | – | – | – | – | – | – | – | – | – | – | – | 48 % of total | 104992 | 3 % of total | 100 | 0 % of total | 0 % of total | 0 % of total | dpm [3, 6]: 5702 dpm; % of total [3, 7]: 49 % of total; dpm [3, 7]: 108299 dpm; dpm [2, 12]: 0 dpm; dpm [2, 13]: 0 dpm; dpm [2, 14]: 0 dpm; % of total [2, 15]: 100 % of total |
| O=C([O-])CN1CCN(CC(=O)[O-])CCN(CC(=O)[O-])CCN(CC(=O)[O-])CC1.[Sm+3] [Sm-DOTA] | 98 % of total | 1439622 | 2 % of total | 27521 | 0 % of total | 0 | 100 | 98 % of total | 1429326 | 2 % of total | 28850 | 0 % of total | 0 | – | – | – | – | – | – | – | stability to autoclaving [1]: unstable product producing a mixture of Sm-DOTA and unchelated Sm^+3 |
| Technetium-99m-DTPA [^99mTc-DTPA, reference compound] | – | – | – | – | – | – | – | – | – | – | – | – | – | – | – | – | – | – | – | – | Percent of initial injection, blood ([4]; blood 10 min after i.v. injection): 85% of initial injection; Percent of initial injection, blood ([4]; blood 30 min): 63% of initial injection; Percent of initial injection, blood ([4]; blood 60 min): 30% of initial injection; Percent of initial injection, urine ([4]; urine 30 min): 25% of initial injection; Percent of initial injection, urine ([4]; urine 180 min): 92% of initial injection |
